# From US4055640A, “Compositions and methods for controlling the growth of bacteria, fungi and algae using certain derivatives of N-(2,2-dichlorovinyl)salicylamides” (Nippon Kayaku Co., Ltd., priority 1975, dated 1977)
# Experiments:
# [1] = test system: seedling blight of rice plant (pathogen Fusarium sp. and Rhizoctonia sp.); assay: Exterminating test on seedling blight of rice plant (Experimental Example 1); format: in vivo; conditions: soil, 408 h, read-out: Percentage of healthy seedlings
# Method in brief: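 Pathogen-contaminated nursery soil (Fusarium sp., Rhizoctonia sp.) mixed with 5% compound dust at 5 g per box; Nihonbare rice sown, grown 7 days at 17° C in lighting chamber, then moved to field. Assessed 10 days later as percentage of healthy seedlings; commercial 4% hydroxyisoxazol dust run as control.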
# [2] = test system: rice plant (variety: Nihonbare); assay: Phytotoxicity on rice plant (Experimental Example 1); format: in vivo; conditions: 0.25g/box a.i.
# Description: Exterminating test on seedling blight of rice plant Nursery boxes (60 × 30 × 3 cm) were filled with soil which were contaminated with pathogen (Fusarium sp. and Rhizoctonia sp.) The dust in which the present compound was contained in a ratio of 5% by weight was added in the box in a ratio of 5 grams per box and mixed well with soil. Thereafter, seeds of rice plant (variety: Nihonbare) were sowed in drills at a rate of 0.3 liter per box and grown up in a lighting chamber at 17° C. After 7 days from the sowing, the boxes were carried out in the field. Furthermore, 10 days thereafter the observations were made. Four percent (4%) dust of 3-hydroxy-5-methyl isoxazol (hereinafter referred to as hydroxyisoxazol) on the market was used as a control and tested by the same method. The test results are shown in Table 2 with a "percentage of healthy seedlings". The percentage of healthy seedlings was calculated as follows: […]
# [3] = test system: Rhizoctonia solani (damping-off of cucumber); assay: Exterminating test on damping-off of cucumber (Experimental Example 3); format: in vivo; conditions: Rhizoctonia solani, soil, 240 h, read-out: Percentage of healthy seedlings
# Method in brief: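 Pots of field soil infested with Rhizoctonia solani (5 g/pot), sown with 10 Azumamidori cucumber seeds, then drenched with 50 ml aqueous suspension of 80% wettable powder and kept in greenhouse. PCNB 50% wettable powder as control. Percentage of healthy seedlings scored 10 days after inoculation.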
# [4] = test system: cucumber (variety: Azumamidori); assay: Phytotoxicity on cucumber (Experimental Example 3); format: in vivo; conditions: 1,000 ppm
# [5] = test system: Fusarium wilt of cucumber; assay: Exterminating test on Fusarium wilt of cucumber (Experimental Example 4); format: in vivo, Fusarium oxysporum f, cucumerinum; conditions: Fusarium, soil, 336 h, read-out: Percentage of healthy seedlings
# Method in brief: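 Pots of steam-sterilized soil mixed with 20 g infested soil, sown with 18 cucumber seeds (Tokiwazibai), drenched with 100 ml aqueous suspension of 80% wettable powder. Benlate 50% wettable powder run as control. Disease scored two weeks after planting as percentage of healthy seedlings.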
# [6] = test system: cucumber (variety; Tokiwazibai); assay: Phytotoxicity on cucumber (Experimental Example 4); format: in vivo; conditions: 500 ppm
# Description: Exterminating test on Fusarium wilt of cucumber Twenty (20) grams of infected soil was added uniformly into each pot which was filled with steam sterilized field soil, then 18 seeds of cucumber (variety; Tokiwazibai) were sowed in each pot. Eighty percent (80%) wettable powder of the present invention was diluted with water to obtain a suspension, and each pot was drenched with the suspension in an amount of 100 ml. Fifty percent (50%) wettable powder of methyl-1-(butylcarbamoyl) 2-benzimidazol carbamate (hereinafter referred to as Benlate) on the market was used as a control and tested by the same method. After two weeks of planting, degrees attacked by the pathogen was observed and a "percentage of healthy seedlings" was calculated as follows: [formula]
# Aspergillus niger = assay: Minimum inhibitory amount, dilution methods (Example 24); format: cell-based; conditions: Aspergillus niger, read-out: Minimum inhibitory amount
# Excerpt: (§1) Bactericidal activity and fungicidal activity of the active compounds of the present invention were examined by potato-dextrose agar dilution method, or [2] glucose bouillon medium dilution method. The results are shown in Table 10 below as the minimum inhibitory concentration (the minimum concentration of active compound found to produce 100% control of the test bacteria and fungi).
# Bacillus subtilis = assay: as above; format: cell-based; conditions: Bacillus subtilis, read-out: Minimum inhibitory amount
# Excerpt: as §1
# Cladosporium harbarum = assay: as above; format: cell-based; conditions: Cladosporium, read-out: Minimum inhibitory amount
# Excerpt: as §1
# Escherichia coli = assay: as above; format: cell-based; conditions: Escherichia coli, read-out: Minimum inhibitory amount
# Excerpt: as §1
# Penicillium Citrinum = assay: as above; format: cell-based; conditions: Penicillium citrinum, read-out: Minimum inhibitory amount
# Excerpt: as §1
# Staphylococcus aureus = assay: as above; format: cell-based; conditions: Staphylococcus aureus, read-out: Minimum inhibitory amount
# Excerpt: as §1
smiles,measurement,setting,value
"CNC(=O)Oc1ccccc1C(=O)NC=C(Cl)Cl [Compound No. 19, O-(N'-methylcarbamoyl)-N-(2,2-dichlorovinyl) salicylamide]",Percentage of healthy seedlings at 0.25 g/box,[1],64.7%
same,Phytotoxicity,[2],Nil
same,pest or weed control at 1000 ppm,[3],65%
same,Phytotoxicity,[4],Nil
same,pest or weed control at 500 ppm,[5],38%
same,Phytotoxicity,[6],Nil
same,MIC,Aspergillus niger,20 µg/mL
same,MIC,Bacillus subtilis,10 µg/mL
same,MIC,Cladosporium harbarum,5 µg/mL
same,MIC,Escherichia coli,60 µg/mL
same,MIC,Penicillium Citrinum,10 µg/mL
same,MIC,Staphylococcus aureus,10 µg/mL
